This passage reports Ki results from BindingDB's records for PubMed 27409354 (n/a, 2016).

The nature of this assay: Binding affinity to CypD (unknown origin).

As a reminder, the Ki is a measure of affinity in units of concentration, obtained from inhibition or displacement. High values mean a looser hold on the target, low ones a stronger hold on the target. Regarding `O=C(Nc1ccc2nc(-c3ccco3)c(-c3ccco3)nc2c1)N1CCCC1`, the Ki was 2000 nM.
